Results on two compounds are retold here after patent publication US20230040357A1, “PHARMACEUTICAL COMPOSITION AND HEALTH FUNCTIONAL FOOD FOR PREVENTING, AMELIORATING OR TREATING DIABETES CONTAINING WASP EXTRACT AS ACTIVE INGREDIENT” (Andong National University Industry-Academic cooperation …, priority 2021, published 2023).

Where “and” joins values, the source holds several entries; their conditions need not be identical. Identical values can stand only once.

The data set deals with human erythrocytes. As to the kind of experiment: human erythrocyte hemolytic activity. In kind it is cell-based. The settings on record: 37° C., 30 minutes. The protocol: In order to evaluate the acute toxicities of the wasp extracts, the human erythrocyte hemolytic activities of the wasp extracts were evaluated, and the results of the evaluation are shown in Table 3 below. At this time, the hemolytic activity was evaluated according to a previous report (Son Ho-Yong et al., 2014, Korean J. Microbiol. Biotechnol. 42: 285-292). Briefly, 100 μl of human erythrocytes were washed three times with PBS and added to a 96-well microplate, and 100 μl of a sample solution at various concentrations was added thereto and then allowed to react at 37° C. for 30 minutes. Thereafter, the reaction solution was centrifuged at 1,500 rpm for 10 minutes, and 100 μl of the supernatant was transferred to a fresh microtiter plate, and then the degree of hemoglobin leakage following hemolysis was measured at 414 nm. DMSO (2%) was used as a solvent control for the sample, and Triton X-100 (1 mg/ml) was used as an experimental control for hemolysis of erythrocytes. Hemolytic activity was calculated using the following equation.
(%) Hemolysis=[(Abs. S−Abs. C)/(Abs. T−Abs. C)]×100
Abs. S: absorbance of sample-added group
Abs. C: absorbance of DMSO-added group
Abs. T: absorbance of Triton X-100-added group

For the compound Triton X-100, for the setting “1.0 mg/ml”, the “Human erythrocyte hemolytic activity” value is 100% and 100.0 ± 0.1%.
In the case of `C[C@@H]1[C@H](O)[C@@H](C)/C=C/C=C/C=C/C=C/C=C/C=C/C=C/[C@H](O[C@@H]2O[C@H](C)[C@@H](O)[C@H](N)[C@@H]2O)C[C@@H]2O[C@](O)(C[C@@H](O)C[C@@H](O)[C@H](O)CC[C@@H](O)C[C@@H](O)CC(=O)O[C@H]1C)C[C@H](O)[C@H]2C(=O)O` [Amphotericin B], the “Human erythrocyte hemolytic activity” value came out at 6.54 ± 0.9% (0.0032 mg/ml); 21.6 ± 3.7% (0.0063 mg/ml); 48.2 ± 5.9% (0.0125 mg/ml); 72.4 ± 5.2% (0.05 mg/ml); 95.8 ± 0.3% (0.1 mg/ml).
